In US20040076659A1, “Additive for livestock feeds” (priority 1994, published 2004):

Legend:
[1] = tested on: rumen microbial proteinases; assay: Protease activity of mixed rumen microbial cell enzyme source (casein substrate); format: biochemical, cows
Description: Two rumen-fistulated, nonlactating cows averaging 623±12.5 kg in weight were fed 5 kg dry matter (DM) of low quality timothy hay twice daily. About 2.5L of rumen fluid was collected through the fistula 4 hrs after the morning feeding at 07:00 hrs. Bulk feed particles were removed by sieving the fluid through a 0.5 mm strain. The fluid was then composited and then stored in a prewarmed (37° C.) thermal container.
A microbial powder was prepared using the acetone-butanol extraction procedure outlined by Mahadevan et al., “Preparation of protease from mixed rumen microorganisms and its use for the in vitro determination of true protein in feedstuffs,” Can. J. Anim. Sci. 67:55 (1987). About 500 g of this powder was prepared and stored at −20° C. Extraction of the proteases was accomplished by stirring 250 g of the powder with 1L of 4° C. cold water (for 1 hr) and then proceeding along Mahadevan's extraction procedure. Only extracts from the filtration with an XM-300 Amicon Filter, (approx. 300 000 molecular weight cutoff—under nitrogen gas), were made, washed twice with distilled water and the retentate freeze dried. This was referred to as the mixed microbial cell enzyme source. It was used in the protein adhesion tests and also in the parallel thiol and protease activity determinations.
Ten grams of the mixed microbial cell enzyme was dissolved in 100 ml warm (37° C.) 0.1 M phosphate buffer, pH 6.8, and used as an enzyme inoculant. The assay matrix consisted of 1 ml enzyme source, 1 ml 2% casein solution, 1 ml 01 M phosphate buffer and 1 ml of either the relevant level of surfactant or an equivalent amount of buffer. Ten levels of the two surfactants, polyoxyethylene sorbitan monoleate (Tween 80) and polyoxyethylene sorbitan monastearate (Tween 60) were tested, viz 0, 0.08, 0.16, 0.24, 0.32, 0.4, 0.8, 1.2, 1.6, and, 2.0% surfactant in the assay mixture.
The protease activity incubations were performed in 50 ml plastic centrifuge tubes, at 37° C. and under a stream of carbon dioxide gas. After 1.5 hr, 1 ml of the assay mixture was removed for the determination of thiols (SH) and disulfides (SS) (Sasago et al., “Determination of sulfhydryl and disulfide groups in milk by p-chloromercuribenzoate-diathizone method,” J. Dairy Sci. 46:1348-1351 (1963)). At the end of 2 hr incubation, the reaction was stopped with 1 ml of 15% TCA (trichloroacetic acid) solution, cooled to 4° C. under an icebath, and centrifuged at 10,000 for 10 min. The free amino acids in the supernatant were assayed using the ninhydrin method (Rosen, “a Modified Colorimetric Analysis For Amino Acids,” Arch. Biochim. Biophys. 67:10 (1957)). The optimal surfactant inclusion level was calculated by direct linear plots on the assumption that the Michaellis-Menten equation applied.

[2] = tested on: wethers; assay: In vivo digestibility trial, timothy hay sprayed with Tween 80; details: sheep; about 0.3% Tween 80 in the ration
Description: Four […] weighing (72.5±15.0 kg) fitted with both rumen and duodenal cannula, were offered chopped medium quality timothy hay ad libitum. The hay was either sprayed with 500 ml water or 50 ml of […] dissolved in 500 ml of water. The feed was offered in two equal portions, at 08:30 and 20:30 hr. Water was available ad libitum. The experiment was designed as a 2×2 latin square with two 14-day adaptation, two 7-day collection periods. Estimates of the rates of passage of the two treated hays were made using chromium mordanted fibre (Cr) for the particulate phase and cobalt-ethylene diaminetetracetic acid (Co-EDTA) for the liquid phase. The method of Uden et al., “Investigation of chromium, cerium and cobalt as markers in digesta: Rate of Passage studies,” J. Sci. of Food and Agriculture 31:625-632 (1980), was used in the preparation of both markers. The sheep were adapted to the feed in individual pens, and then moved into digestibility cages for total collection and marker infusion. During the collection period, records of feed intake, faecal and urine output were maintained. 250 g subsamples of the faeces were collected daily, subsampled for DM determination, while the rest was dried under a drought oven. Urine was collected under 1N sulphuric acid. On the last day of the collection period, each sheep was given 50 g of Cr-mordanted fibre 1 hr prior to the evening feeding. In addition, 250 ml of Co-EDTA (0.1 g/ml) was infused intraruminally and the animals were then fed. Rumen digesta and duodenal sampling commenced 4 hr after dosing and continued at the same interval for 96 hr. Two samples of rumen fluid were collected: The first rumen fluid samples (30 ml) were preserved for microbial protein estimations by adding 7.5 ml of 0.9% NaCl in 37% formaldehyde solution. The samples were then stored at -20° C. after the preparation of a bacterial pellet by centrifugation at 27,000 g max for 15 min. A portion of the second rumen fluid and faecal samples was dried at 80° C. and ground in a coffee grinder (Braun, Inc. MA) for DM and Cr determination (Uden et al., 1980). Cr concentration in the samples was determined in duplicate by atomic absorption spectrophotometer (Perkin Elmer 560) using Cr standards (Fisher Scientific Co. NJ). The rest of the second rumen fluid sample was centrifuged at 10,000 g max for 10 min and the supernatants analyzed directly for cobalt using 0.1N HCL as the blank. Standards were prepared using cobalt chloride (Fisher Scientific Co. NJ). Marker concentrations were expressed per gram of dry sample. Other analyses included: acid and neutral detergent fibre (Goering and Van Soest, “Forage fiber analysis,” Agric. Handbook No. 379, p. 12 (1970)), total N (Parkinson and Allen, “A wet oxidation procedure suitable for the determination of nitrogen and mineral nutrients in biological materials,” Comm. Soil Sci. Plant Anal. 6:1 (1975)) for RNA concentrations of the rumen bacterial pellets and duodenal samples.

[3] = tested on: Red Angus steers; assay: Performance of feedlot cattle, 119 days (Example 6); format: in vivo
Description: Three hundred and twenty six Red Angus steers were stratified by weight and divided into eight pens. The pens were then randomly assigned to one of the following four dietary treatments:
3) 0.2% (wt/wt) glycanase enzyme (enzyme)
The enzyme is marketed by GNC Bioferm Inc., Saskatoon, SK. The product contained the following activities (expressed as nmol of reducing sugars released from 1 mg of product per min: xylanase (336.6), β-glucanase (196.0), carboxymethylcellulase (44.4), and amylase (46.3). The basal diet was a total mixed ration consisting of rolled barley, corn silage and canola meal. Tween 80 was diluted with tap water (1 in 5) before it was applied. The total amount of feed required each day for the animals on each treatment was weighed separately in a mixer wagon and the appropriate quantity of Tween 80, enzyme, or their combination applied to it and mixed for ten minutes before feeding. An equal volume of water as applied to the Tween 80 treatment was also applied to the control and enzyme treatment to make the moisture content of the four experimental diets equal. The experimental diets were fed for a total of 119 days. Individual body weights were taken at the beginning and end of the experiment. Group body weights were taken at monthly intervals.

[4] = direct linear plots, Michaelis-Menten assumed

## polyoxyethylene sorbitan monoleate [Tween 80]
[1]; control=0
  Initial rate of proteinase activation: 163.5%
[1]; [4]
  Km (additive conc.), proteinase activation: 0.20 ± 0.03b %
  Vmax (maximum proteinase activation): 166.8 ± 8.9b %/unit additive conc.
[2]
  Digestibility, Acid detergent fibre: 52.68b (0.4) %
  Digestibility, Crude protein: 61.25b (0.5) %
  Digestibility, Dry matter: 64.70b (0.8) %
  Digestibility, Neutral detergent fibre: 60.63b (0.7) %
  Increase in digestibility compared to control: 18%
  Increase in intake compared to control: 5%
  Intake: 2.06b (0.1) % of the body weight
[3]; 0.1% Tween 80
  Average Daily Gain: 1.69a kg/d
  Average daily gain higher than control: 6.3%
  Feed Efficiency (Gain/Feed): 0.166
  More weight gained than animals on the control diet: approximately 5.8%
[3]; 0.1% Tween 80 (dry matter basis)
  Total Weight Gain: 219.03a kg
